Results published in patent publication US20130085109A1, “METHODS OF CARDIOVASCULAR PATIENT TREATMENT USING SUBSTANCES SUFFICIENT TO REDUCE ACTIN DEPOLYMERIZATION” (priority 2008, published 2013).

Columns and labels:
[1] = test system: NADPH oxidase; assay: NADPH oxidase activity assay in subcellular membrane preparations of vessels; format: in vivo, swine
Protocol: (§1) In some experiments (n=3), the carotid arteries were treated with jasplakinolide to stablize the actin. […] The right side vessel 114 was filled with saline and served as control. The reverse or forward flows were then ensured for 2 hrs (for superoxide measurement) or 4 hrs (for NADPH oxidase measurment by western blot) after clamps 116, 118 were released. A low concentration of jasplakinolide was used, which was sufficient to stabilize actin and to avoid possible non-specific effects at high concentration. […]
Stored samples were placed in ice cold lysis buffer containing 20 mM KH2PO4, 1 mM EGTA and protease inhibitor cocktail (Sigma-Aldrich, St. Louis, Mo.) and homogenized with an electric homogenizer (Power Gen 35, Fisher Scientific) for 20 seconds each. […] The enzyme activity was determined in 200 μl assay buffer at pH7.4 containing the following (in mM): HEPES, 25; NaCl, 120; KCl, 5.9; MgSO4, 1.2; CaCl2, 1.75; glucose, 11; β-NADPH, 0.1; and L012, 0.1. The reaction started by adding 10 μL of homogenate, and the luminescence was measured every 15 seconds for 5 minutes by Perkin Elmer plate reader at ultra-sensitive mode. The protein concentration was determined by BCA kit (Bio-Rad) and the results of enzyme activity were standardized to protein level of each sample. […]

[2] = test system: carotid artery with reverse flow; assay: Superoxide measurement (L012 luminescence) in carotid arteries after in vivo reverse flow with drug treatment; set-up: species or system swine
Source text: To create a full reverse flow, and as part of an exemplary system 100 of the present disclosure, two tubes 102, such as two pieces of silicone tubing, were inserted into the two respective ends of the isolated vessel segment 104 as shown in FIGS. 1A and 1B. In at least one embodiment, tubes 102 are configured to fit within a portion of isolated vessel segment 104, and in at least another embodiment, tubes 102 are configured so surround the ends of vessel segment and are held in place with a connector (not shown). […]
The harvested vessels (vessel segments 104) were cut into small rings at approximately 3 mm in length in 37° C. […] The L012 (100 μM) was added last and the luminescence was recorded for 60 minutes at 1 minute intervals using a plate reader from Perkin Elmer (En vision Xcite Multilabel Reader, Perkin Elmer, Shelton, Conn.) at ultra-luminecent mode. […]
Samples were obtained from carotid arteries with forward (solid bar) or reverse (empty bar) flow (FF or RF, respectively) or reverse flow plus jasplakinolide (Jasp) treatment (lined bar). The basal level of superoxide measured under forward flow condition was taken as 100%, and all other measurements were expressed as percentage to the basal level. Each measurement was performed in triplicate and data were expressed as mean±1SD. […]

[3] = test system: carotid artery wall; assay: Superoxide in carotid artery wall by dihydroethidine fluorescence (laser confocal microscopy) after flow reversal; format: in vivo; settings: apocynin 1 mM in drinking water concurrently with carotid flow reversal; vs flow reversal without apocynin
Protocol: The carotid arteries of animals were removed and examined by laser confocal microscopy excitation (514 nm; emission, 605 nm; Objective, 40x. C.3.a. Visualization of NO and O2-Using Fluorescence) following perfusion under conditions of: Control (C), Flow Reversal (FR), and Apocynin+Flow Reversal (AC). The apocynin was administered in drinking water (1 mM) to an animal concurrently with carotid flow reversal. Dihydroethidine (DHE), a fluorescent dye, was used to indicate superoxide in arterial wall.

[4] = test system: porcine femoral artery preparation; assay: NO metabolite (nitrite) production in perfused porcine femoral artery preparation, forward and reverse flow; settings: tempol added to perfusate
Protocol: A purfusate was passed through an in vitro porcine femoral artery preparation in the forward and reverse flow directions and the levels of NO metabolite (nitrite) were measured at various flowrates in the forward and reverse directions. Thereafter, tempol was added to the perfusate and the levels of NO metabolite (nitrite) were again measured at various flowrates in the forward and reverse directions. […] The asterisk denotes statistical significance by ANOVA analysis between groups at the respective flows (P<0.05).

[5] = test system: carotid artery rings (endothelial cells); assay: Superoxide measurement (L012 luminescence) in carotid artery rings treated in vitro; format: cell-based, swine
Protocol: For superoxide measurements, carotid arteries (vessel segments 104) from both sides were quickly removed and placed into a heated (37° C.) chamber filled with HEPES buffered PSS containing (in mM): D-glucose, 5.5; KCl, 4.7; NaCl, 142; HEPES sodium salt, 2.7; MgSO4, 1.17; CaCl2, 2.79; at pH 7.4. For NADPH oxidase activity assays or protein expression measurements by western blot, the left and right carotid arteries were removed and saved in a −80° C. freezer until analysis.
The harvested vessels (vessel segments 104) were cut into small rings at approximately 3 mm in length in 37° C. HEPES PSS buffer. The rings were first transferred into […] with HEPES-PSS and incubated at 37° C. for 5 minutes. Various compounds [cytochalason D, latrunculin B, jasplakinolide, and phorbol 2-myrisate 13-acetate (PMA)] were then added into each well for treatment. The L012 (100 μM) was added last and the luminescence was recorded for 60 minutes at 1 minute intervals using a plate reader from Perkin Elmer (En vision Xcite Multilabel Reader, Perkin Elmer, Shelton, Conn.) at ultra-luminecent mode. The total reaction volume was 200 μl. After each recording, the sample rings were air dried and weighed. Each condition was tested in triplicate. To remove the endothelial cells, the vessel ring was gently rubbed against the tip of a pair of forceps.
Basal superoxide production was detected in the carotid artery (vessel segment 104) samples obtained from control animals with forward blood flow as shown in FIG. 2A. Rings were incubated with or without treatments of cytochalasin D (cyt D), latrunculin (Latru) or jasplakinolide (Jasp) and the superoxide production were recorded using plate reader at ultrasensitive mode for luminescence to generate the results shown in FIG. 2A. The luminescence recorded from rings without treatment was considered at base level and taken as 100%. The luminescence recorded under other conditions was expressed as percentage of base level. The superoxide production induced by PMA was used as positive control as identified in FIG. 2B. Each condition was tested in triplicate from each animal. The significance of increased superoxide production was test using ANOVA (p=0.004 for cytochalasin D, n=10 and p=0.044 for Latrucillin, n=3), and the data are mean±1SD.

[6] = test system: gp91phox and p47phox; assay: Western blot for NADPH oxidase expression; format: in vivo, swine; settings: jasplakinolide, four hours of treatment
Protocol: as §1
The artery segments were homogenized in the lysis buffer containing 50 mM glycerophosphate, 100 μM sodium orthovanadate, 2 mM magnesium chloride, 1 mM EGTA, 0.5% Triton X-100, 1 mM DL-dithiothreitol, 20 μM pepstatin, 20 μM leupeptin, 0.1 U/ml aprotinin, and 1 mM phenylmethylsulfonyl fluoride and then incubated on ice for 1 hour. […] The total protein was measured by a BCA kit (Bio-Rad). […]
The NADPH oxidase activity was examined using an enzyme assay in subcellular membrane prepared from vessels with different flow conditions. […] The data are expressed as ratio of enzyme activity measured in vessel from reverse flow (RF) or reverse flow with jasplakinolide (RF-Jasp) treatment vs forward flow (FF). […] The data are expressed as ratio of protein band density of reversed flow sample versus that from forward flow sample.

[7] = test system: p47phox; assay: p47phox phosphorylation (phosphoserine immunoprecipitation and western blot), in vitro; format: cell-based, swine; settings: cytochalasin D treatment in vitro; p<0.05
Protocol: For p47^phox phosphorylation measurements, the total protein with phosphoserine was first immunoprecipitated according to a known method. Briefly, samples were first incubated with rabbit polyclonal antibody to phosphoserine (Abcam, Cambridge, Mass.) for 2 hours at 4° C. Samples were then mixed with Protein G PLUS-Agarose (Santa Cruz Biotechnology, Santa Cruz, Calif.) and incubated overnight at 4° C. Samples were then centrifuged and washed three times with lysis buffer. The pellet was resuspended in loading buffer and denatured. The p47^phox was then measured by western blot.
P47^phox phosphorylation was examined further to understand the molecular basis for increased superoxide production subsequent to actin depolymerization and flow reversal, as shown in FIGS. 7A-7D. The phosphorylated P47^phox was standardized by total P47^phox. The level of phosphorylated P47^phox at basal level in vitro (FIG. 7A) or under forward flow (FF) condition in vivo (FIG. 7C) were taken as 100% and the level of phosphorylated P47^phox after cytochalasin D treatment or under reversed flow (RF) condition were expressed as percent thereof. […] The data are mean and SD of at least three experiments from different animals (*p<0.05).

[8] = test system: actin in carotid artery endothelial cells; settings: reported previously; cited from earlier work
[9] = test system: actin in carotid artery endothelial cells; assay: Actin immunostain (Alexa Fluor488-phalloidin) of carotid artery rings, in vitro actin depolymerization; format: cell-based, swine; settings: 10 μM cytochalasin D, 30 minutes, 37° C.
Protocol: For actin staining, vessels under different conditions were cut into 4 mm rings and immediately fixed for 2 hours in 4% methanol-free formaldehyde-PBS solution (Thermo Scientific, Rockford, Ill.). For in vitro actin depolymerization immunochemistry, 3 to 4 mm carotid artery ring from control animal were incubated with 10 μM cytochalasin D for 30 minutes. Samples were fixed for 2 hours and then processed for actin staining.
The fixed samples were permeablized by 0.1% tritonX-PBS solution. After non-specific sites were blocked by 1% BSA in PBS, actin was labled by incubating samples with Alexa Fluor488-phalloidin (Invitrogen, Carlsbad, Calif.) for 30 minutes at room temperature. After labeling, each sample was cut into a 3×3 mm piece and mounted on glass slide and covered with a glass cover slip in the presence of 70% glyceral-PBS and sealed with glue. The samples were observed under a Zeiss confocal microscope (Zeiss 510 meta) and images were captured under 100× objective oil lens with excitation at 488 nm and emission at BP 500-530 nm.
All samples were viewed under confocal microscopy (Zeiss 510 meta) with 100× objective with excitation at 488 nm and Emission at BP 500-530 nm.

**Q.** With `COc1cc(C(C)=O)ccc1O` [apocynin, 4-hydroxy-3-methoxy-acetophenone] as the compound, how does the “NADPH oxidase enzyme activity” value ([1]; samples from animals treated with apocynin) read?
**A.** reduced

**Q.** What about the “reversed flow induced superoxide production” value ([2]; apocynin bolus 4 mg/kg i.v. then 3.5 μg/kg/min i.v.) of the same compound?
**A.** abolished

**Q.** What about the “amount of superoxide present in artery wall (DHE fluorescence)” value [3] of the same compound?
**A.** reduced the amount of superoxide

**Q.** Which “NO production (NO metabolite nitrite)” value ([4]; forward flow) does the source give for `CC1(C)CC(O)CC(C)(C)N1[O]` [tempol, 4-hydroxy-2,2,6,6-tetramethyl-4-piperidine-N-oxyl] here?
**A.** did not cause a statistically significant increase

**Q.** And the “NO production (NO metabolite nitrite)” value ([4]; reverse flow, P<0.05)?
**A.** did significantly increase

**Q.** For `C/C1=C/C(=O)O[C@@H]2C[C@@H](CC[C@H](C)/C=C\CC1)O[C@@](O)([C@@H]1CSC(=O)N1)C2` [latrunculin, latrunculin B], which “increase of superoxide production vs untreated samples” value ([5]; 1 μM latrunculin, artery samples under normal forward flow) is on record?
**A.** ~2 fold

**Q.** With `C/C1=C\[C@H](C)C[C@H](C)OC(=O)C[C@H](c2ccc(O)cc2)NC(=O)[C@@H](Cc2c(Br)[nH]c3ccccc23)N(C)C(=O)[C@H](C)NC(=O)[C@@H](C)C1` [jasplakinolide] as the compound, how does the “NADPH oxidase activity in vessel with reversed flow vs untreated vessel” value ([1]; jasplakinolide treatment (0.1 μM prefill)) read?
**A.** decreased

**Q.** What about the “increase of superoxide production on reversed blood flow” value ([2]; vessel prefilled with 0.1 μM jasplakinolide 10 minutes, reverse flow 2 hrs) of the same compound?
**A.** prevented

**Q.** And the “superoxide level vs untreated samples” value ([5]; 0.1 μM jasplakinolide, artery samples under normal forward flow)?
**A.** not changed

**Q.** And the “expression of NADPH oxidase subunits gp91phox and p47phox” value [6]?
**A.** not changed

**Q.** For `C=C1[C@@H](C)[C@H]2[C@H](Cc3ccccc3)NC(=O)[C@]23[C@H](OC(C)=O)/C=C/[C@@](C)(O)C(=O)[C@@H](C)C/C=C/[C@H]3[C@@H]1O` [cytochalasin D], which “p47phox phosphorylation vs untreated sample” value [7] is on record?
**A.** increased

**Q.** And the “cytochalasin D concentration at which all long actin filament bundles were disrupted and replaced by focal aggregates of F-actin” value [8]?
**A.** ≥ 2 µM

**Q.** What about the “cytochalasin D concentration at which changes of actin cytoskeleton were visible” value [8] of the same compound?
**A.** 20 nM

**Q.** What about the “increase of superoxide production vs untreated samples” value ([5]; 10 μM cytochalasin D, artery samples under normal forward flow) of the same compound?
**A.** about 5 fold

**Q.** What about the “superoxide production in vessel with reverse flow” value ([5]; cytochalasin D added to samples from reverse flow vessel) of the same compound?
**A.** further increase

**Q.** And the actin filament pattern [9]?
**A.** significant disruption of actin filaments
